Reference: patent publication US20230406885A1, “CYCLIC PEPTIDES FOR TRAPPING INTERLEUKIN-1 BETA” (MERCK SHARP & DOHME LLC, priority 2022, published 2023)
Where two headings read alike, the source gives them in different places. *1 amine or outer side, *2 acyl side, *3 side chain or, on linkers, in order; H or OH if unused. Where a SMILES comes first, the peptide text is derived from it. [ ]: non-standard residue; d: D form. Trp(4-Cl)(βS-Me) = C[C@@H](c1c[nH]c2cccc(Cl)c12)[C@H](N)C(=O)O; Trp(βS-Me,4-F) = C[C@@H](c1c[nH]c2cccc(F)c12)[C@H](N)C(=O)O; Bip(4'-COOH) = N[C@@H](Cc1ccc(-c2ccc(C(=O)O)cc2)cc1)C(=O)O; X1 = CC(=O)N1CCN(c2ccc(C[C@H](N[*:1])C(=O)[*:2])cn2)CC1; 1Nal(3S-Me) = C[C@@H](c1cccc2ccccc12)[C@H](N)C(=O)O; Phe(4-COOH) = N[C@@H](Cc1ccc(C(=O)O)cc1)C(=O)O; Trp(7-Me) = Cc1cccc2c(C[C@H](N)C(=O)O)c[nH]c12; h3Pal(5-CN) = N#Cc1cncc(CC[C@H](N)C(=O)O)c1; Pro(4R-NH2) = N[C@H]1CN[C@H](C(=O)O)C1; Ala(4-THP) = N[C@@H](CC1CCOCC1)C(=O)O; AEF = NCCOc1ccc(C[C@H](N)C(=O)O)cc1; hTyr = N[C@@H](CCc1ccc(O)cc1)C(=O)O; 4Pal = N[C@@H](Cc1ccncc1)C(=O)O; dDab = NCC[C@@H](N)C(=O)O; dNMeA = CN[C@H](C)C(=O)O; Dap = NC[C@H](N)C(=O)O

Biological target: T1, Recombinant human IL-1β (Homo sapiens, UniProt P01584)
T1 construct: purchased BioLegend 579404
T1 sequence (P01584 117-269): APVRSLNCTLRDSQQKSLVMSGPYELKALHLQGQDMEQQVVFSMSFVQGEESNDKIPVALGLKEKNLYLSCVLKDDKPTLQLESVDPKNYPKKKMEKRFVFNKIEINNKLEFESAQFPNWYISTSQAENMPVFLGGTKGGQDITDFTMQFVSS
Test: IL-6 assay in MRC5 cells: inhibition of IL-1β induced IL-6 secretion (AlphaLISA)
Format: cell-based
Details: inhibition of IL-1β induced IL-6 secretion in MRC5 cells, read-out: MRC5 IC50
Procedure, shortened: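 IL-1β at 2×EC80 in seeding medium (EMEM, 0.025% BSA) preincubated 1 h at ambient temperature with compound, then 3000 MRC5 cells/well added and incubated overnight at 37 °C, 5% CO2. IL-6 in conditioned medium quantified by AlphaLISA; IC50 from 4-parameter logistic fit.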

[1] = IL-1β pre-incubated 1 hour with compound

IC50 [1] [nM]	IC50 [nM]	SMILES
0.174		C[C@@H]1C(=O)NCC(=O)N[C@@H](Cc2ccc(-c3ccc(C(=O)O)cc3)cc2)C(=O)N[C@@H](CCCCN)C(=O)N[C@@H](CO)C(=O)N[C@H](C)C(=O)N[C@@H](CCc2ccc(O)cc2)C(=O)N[C@@H](Cc2ccc(-c3ccc(C(=O)O)cc3)cc2)C(=O)N[C@@H](Cc2c[nH]c3ccccc23)C(=O)N[C@@H](Cc2ccc(C(=O)O)cc2)C(=O)NCC(=O)N2C[C@H](N)C[C@H]2C(=O)N[C@@H]([C@@H](C)c2c[nH]c3cccc(Cl)c23)C(=O)N[C@@H](CC(=O)O)C(=O)N1C [Example 45] (cyclo([Bip(4'-COOH)]W[Phe(4-COOH)]G[Pro(4R-NH2)][Trp(4-Cl)(βS-Me)]D[dNMeA]G[Bip(4'-COOH)]KS[dA][hTyr]))
0.291		CC(C)C[C@@H]1NC(=O)[C@H](CCCCN)NC(=O)[C@H](Cc2ccc(-c3ccc(C(=O)O)cc3)cc2)NC(=O)CNC(=O)[C@@H](C)N(C)C(=O)[C@H](CC(N)=O)NC(=O)[C@H]([C@@H](C)c2c[nH]c3cccc(F)c23)NC(=O)[C@@H]2C[C@@H](N)CN2C(=O)CNC(=O)[C@H](Cc2ccc(C(=O)O)cc2)NC(=O)[C@H](Cc2c[nH]c3ccccc23)NC(=O)[C@H](Cc2ccc(-c3ccc(C(=O)O)cc3)cc2)NC(=O)[C@H](CCc2ccc(O)cc2)NC(=O)[C@@H](C)NC1=O [Example 80] (cyclo([Bip(4'-COOH)]W[Phe(4-COOH)]G[Pro(4R-NH2)][Trp(βS-Me,4-F)]N[dNMeA]G[Bip(4'-COOH)]KL[dA][hTyr]))
0.0365		CC(=O)N1CCN(c2ccc(C[C@@H]3NC(=O)[C@H](CCc4cncc(C#N)c4)NC(=O)[C@@H](C)NC(=O)[C@H](CN)NC(=O)[C@H](Cc4ccncc4)NC(=O)[C@H](Cc4ccc(-c5ccc(C(=O)O)cc5)cc4)NC(=O)CNC(=O)[C@@H](C)N(C)C(=O)[C@H](CC(=O)O)NC(=O)[C@H]([C@@H](C)c4cccc5ccccc45)NC(=O)[C@@H]4C[C@@H](N)CN4C(=O)CNC(=O)[C@H](Cc4ccc(C(=O)O)cc4)NC(=O)[C@H](Cc4c[nH]c5ccccc45)NC3=O)cn2)CC1 [Example 1] (cyclo([X1]W[Phe(4-COOH)]G[Pro(4R-NH2)][1Nal(3S-Me)]D[dNMeA]G[Bip(4'-COOH)][4Pal][Dap][dA][h3Pal(5-CN)]))
0.0263		CC(=O)NCCOc1ccc(C[C@@H]2NC(=O)[C@H](CCc3cncc(C#N)c3)NC(=O)[C@@H](CCN)NC(=O)CNC(=O)[C@H](CC3CCOCC3)NC(=O)[C@H](Cc3ccc(-c4ccc(C(=O)O)cc4)cc3)NC(=O)CNC(=O)[C@@H](C)N(C)C(=O)[C@H](CC(=O)O)NC(=O)[C@H]([C@@H](C)c3cccc4ccccc34)NC(=O)[C@@H]3C[C@@H](N)CN3C(=O)CNC(=O)[C@H](Cc3ccc(C(=O)O)cc3)NC(=O)[C@H](Cc3c[nH]c4ccccc34)NC2=O)cc1 [Example 106] (cyclo([AEF](Ac)W[Phe(4-COOH)]G[Pro(4R-NH2)][1Nal(3S-Me)]D[dNMeA]G[Bip(4'-COOH)][Ala(4-THP)]G[dDab][h3Pal(5-CN)]))
	0.038	Cc1cccc2c(C[C@@H]3NC(=O)[C@H](Cc4ccc(-c5ccc(C(=O)O)cc5)cc4)NC(=O)[C@H](CCc4ccc(O)cc4)NC(=O)[C@@H](C)NC(=O)[C@H](CC(C)C)NC(=O)[C@H](CCCCN)NC(=O)[C@H](Cc4ccc(-c5ccc(C(=O)O)cc5)cc4)NC(=O)CNC(=O)[C@@H](C)N(C)C(=O)[C@H](CC(=O)O)NC(=O)[C@H]([C@@H](C)c4c[nH]c5cccc(F)c45)NC(=O)[C@@H]4C[C@@H](N)CN4C(=O)CNC(=O)[C@H](Cc4ccc(C(=O)O)cc4)NC3=O)c[nH]c12 [Example 186] (cyclo([Bip(4'-COOH)][Trp(7-Me)][Phe(4-COOH)]G[Pro(4R-NH2)][Trp(βS-Me,4-F)]D[dNMeA]G[Bip(4'-COOH)]KL[dA][hTyr]))
